These results are taken from patent publication US20260146046A1, “BICYCLIC FERROPORTIN INHIBITORS” (Vifor (International) AG, priority 2022, published 2026).

The target of this test is T1, ferroportin (Fpn) (Mus musculus, UniProt Q9JHI9).
T1 construct: endogenous in cells; host or cells: J774 mouse macrophage cell line, induced with Fe(III)NTA
T1 sequence (Q9JHI9 1-570): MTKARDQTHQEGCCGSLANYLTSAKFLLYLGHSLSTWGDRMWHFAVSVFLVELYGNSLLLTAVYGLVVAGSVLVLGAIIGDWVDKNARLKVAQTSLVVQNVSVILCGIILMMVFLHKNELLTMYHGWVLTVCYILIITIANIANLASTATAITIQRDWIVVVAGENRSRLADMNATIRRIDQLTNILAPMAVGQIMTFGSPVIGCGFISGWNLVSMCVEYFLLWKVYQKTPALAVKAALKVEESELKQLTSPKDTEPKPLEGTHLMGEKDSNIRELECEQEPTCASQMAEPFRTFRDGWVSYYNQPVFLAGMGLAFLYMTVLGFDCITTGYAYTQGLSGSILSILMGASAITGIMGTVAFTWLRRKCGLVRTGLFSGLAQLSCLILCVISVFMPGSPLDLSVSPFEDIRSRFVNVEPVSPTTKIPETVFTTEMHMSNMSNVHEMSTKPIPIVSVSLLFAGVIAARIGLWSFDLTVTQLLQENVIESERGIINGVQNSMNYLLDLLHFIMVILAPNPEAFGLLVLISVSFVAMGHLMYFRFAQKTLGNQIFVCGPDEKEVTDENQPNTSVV
Briefly: Hepcidin Internalization Assay (J774). It is filed as cell-based. The following applies: J774 cells, 25 nM TMR-hepcidin, 2 hours; average of multiple measurements; read-out: Average (AVE) IC50 of Fpn inhibitors in the hepcidin internalization assay. From the text:
This cellular assay allows quantification of the binding of hepcidin to ferroportin (Fpn) through microscopic detection of internalization of a fluorescently labeled hepcidin into J774 cells. […] Binding of hepcidin to Fpn triggers internalization and degradation of both hepcidin and Fpn. […] Therefore, microscopic detection of cell-associated TMR fluorescence is a measure of hepcidin binding to Fpn and internalization of hepcidin and Fpn. If TMR-hepcidin is prevented from binding to Fpn, cellular TMR fluorescence remains low (Durrenberger et al, 2013). The effect of small molecular weight Fpn inhibitor compounds in this assay was evaluated in vitro as described below. […] Cat. 655090) and grown at 37° C. with 5% CO2. After overnight incubation, cells were washed 3 times with pre-warmed DMEM w/o phenol red, 30 μl/well of DMEM w/o phenol red was added after the final wash and 10 μl/well of dilution series of test compounds were added in triplicates. […] Cells were incubated in a total volume of 50 μl at 37° C. with 5% CO2 for 2 hours, then Hoechst 33342 dye was added to a final concentration of 0.5 μg/ml to stain nuclei and further incubated for 10 min. at 37° C. with 5% CO2. […] After removal of the paraformaldehyde solution, cells were washed 3 times with PBS leaving 100 μl per well and the plates were sealed with foil plate seal. […] The acquired image data was analysed with the […] analysis software. […] IC50 values were calculated with the Sum(Mean) raw data using “log(inhibitor) vs. response” curve fitting of Prism 5 software (GraphPad Software Inc., version 5.02). For each data set the fit of the “log(inhibitor) vs. response (three parameters)” model was compared to the fit of the “log(inhibitor) vs. response-Variable slope (four parameters)” model and the IC50 data of the preferred model was used.

pIC50: −log10 of the molar value. Where a name gives a salt, the structure may show the parent alone.

Take `Cn1c(CCNCCc2nc3c(NCc4ncccc4F)nccc3o2)nc2ccccc21` [Example Compound No. 22, N-((3-fluoropyridin-2-yl)methyl)-2-(2-((2-(1-methyl-1H-benzo[d]imidazol-2-yl)ethyl)amino)ethyl)oxazolo[4,5-c]pyridin-4-amine formate]: the pIC50 (in general, −log10 of the IC50, conventionally taken in molar units) is 7.40.
With `Fc1cccnc1CNc1nccc2oc(CCNCCc3nc4cc5c(cc4n3-c3ccccc3)OCCO5)nc12` [Example Compound No. 23, N-((3-fluoropyridin-2-yl)methyl)-2-(2-((2-(1-phenyl-6,7-dihydro-1H-[1,4]dioxino[2′,3′:4,5]benzo[1,2-d]imidazol-2-yl)ethyl)amino)ethyl)oxazolo[4,5-c]pyridin-4-amine formate], the pIC50 was 7.74.
